Test results reported in paper PMC6743424, “Phenolic acid phenethylesters and their corresponding ketones: Inhibition of 5‐lipoxygenase and stability in human blood and HepaRG cells” (Pharmacology Research & Perspectives, 2019).

Key:
HepaRG cells = experiment: Metabolite identification by LC‐MS/MS in HepaRG cell culture; assay type: in vitro ADME, human; conditions: 50 µmol/L, 7.5 and 60 minutes
Procedure: Differentiated HepaRG cells, plated in 24 well plates, were washed with hepatocyte suspension medium (Williams E‐medium without phenol red, supplemented with 2 mmol/L Glutamax and […] HEPES) before addition of hepatocyte suspension medium (250 µL/well) containing (30 or 50 µmol/L) of the test compounds or their diluent. Cells were then incubated for 7.5, 15, 30, 60 or 90 minutes at 37°C after which the medium was removed.
In other experiments, LC‐MS/MS analysis was performed to identify metabolites of test compounds that had been incubated with HepaRG cells. First, fifty micromolar standards of the test compounds were diluted 3000‐fold and analyzed using electrospray ionization mass spectrometry on a linear quadrupole ion trap (LTQ‐XL) from Thermo‐Fisher Scientific (San Jose). Full scan spectra were collected using both ionization polarities for confirmation of the intact molecular weight of each compounds based on the expected [M + H]^+ and [M−H]^− pseudo‐molecular ions observed using mass spectrometry. The diluted standards were then subjected to reversed‐phase partition chromatography on an Altima C18 column produced by HiChrom and distributed by VWR (Mississsauga, ON). The LC system was a Dionex Ultimate 3000. The mass spectrometer electrospray source was used at 40 µL/min with a nitrogen sheath gas of 15, a spray voltage of ±4 kV, a capillary voltage of ±35 V, a tube lens of ±175 V and a capillary temperature of 160°C. Samples that had been collected from HepaRG cultures were purified on C18 cartridges and eluted with CH3OH. For the first injection of extracted samples, the MS method consisted of a repeated loop of full scan (m/z 100‐800), product ion scan based on the intact mass determined from infusion of the standards and one product ion scan. […]
Figure 7 Metabolite identification using negative ion LC‐MS/MS in HepaRG cell culture. […] Right panels show the MS and MS/MS of the generated metabolites detected at 60 minutes. […]

5‐LO = biological target: T1, 5‐LO (Homo sapiens, UniProt P09917); experiment: Biosynthesis of 5‐LO products in thapsigargin‐stimulated human PMNL; assay type: cell-based; set-up: endogenous in cells; host or cells: human polymorphonuclear leukocytes isolated from heparinized blood; conditions: for IC50: 5‐LO product biosynthesis in human PMNL, mean (95% confidence interval); for Inhibition of LT biosynthesis in human PMNL: 1 μmol/L, 5 min, 1 μmol/L thapsigargin 15 min
T1 sequence (P09917 1-674): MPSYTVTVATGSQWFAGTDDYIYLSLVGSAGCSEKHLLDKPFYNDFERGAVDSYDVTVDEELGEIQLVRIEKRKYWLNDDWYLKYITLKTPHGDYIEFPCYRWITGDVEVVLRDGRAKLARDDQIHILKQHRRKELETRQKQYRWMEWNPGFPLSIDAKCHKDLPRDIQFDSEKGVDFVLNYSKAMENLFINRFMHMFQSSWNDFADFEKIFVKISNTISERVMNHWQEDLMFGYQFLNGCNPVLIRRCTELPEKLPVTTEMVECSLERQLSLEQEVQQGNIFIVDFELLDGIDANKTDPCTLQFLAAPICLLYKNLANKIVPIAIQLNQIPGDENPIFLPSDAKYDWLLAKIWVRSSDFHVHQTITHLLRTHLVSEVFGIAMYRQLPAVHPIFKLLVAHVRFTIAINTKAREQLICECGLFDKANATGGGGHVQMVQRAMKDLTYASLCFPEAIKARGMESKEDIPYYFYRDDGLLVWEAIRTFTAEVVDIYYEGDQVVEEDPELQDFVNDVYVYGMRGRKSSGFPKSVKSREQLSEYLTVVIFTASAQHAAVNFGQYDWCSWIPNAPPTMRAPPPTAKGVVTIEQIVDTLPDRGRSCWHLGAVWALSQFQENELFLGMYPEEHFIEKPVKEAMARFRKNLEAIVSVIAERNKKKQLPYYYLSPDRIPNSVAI
Procedure: Heparinized blood (see Ethics statement) was collected, centrifuged at 200g for 10 minutes to collect plasma, and erythrocytes were sedimented in dextran. PMNL were obtained after centrifugation on a lymphocyte separation medium cushion (density, 1.077 g/mL) (Wisent) at 900 g for 20 minutes, followed by hypotonic lysis to remove residual erythrocytes.33 PMNL were counted and resuspended at 10^7 cells/mL in HBSS supplemented with 1.6 mmol/L CaCl2 and 0.3 U/mL adenosine deaminase (Sigma‐Aldrich). PMNL were preincubated with the test compounds or their diluent (0.1% DMSO) for 5 minutes at 37°C and were then stimulated with 1 µmol/L thapsigargin (Sigma‐Aldrich) for 15 minutes at 37°C.27 Reactions were stopped by adding two volumes of CH3OH:CH3CN (1:1) containing the internal standard PGB2 (100 ng/mL), and samples were processed for RP‐HPLC analysis of 5‐LO products.
(A) The structures of CAPE (2) and its analogues investigated in this study. (B) Isolated human PMNL were incubated in presence of test compounds (1 μmol/L) or their diluent (Control, 0.1% DMSO) for 5 minutes. PMNL were stimulated with 1 μmol/L of thapsigargin for 15 minutes at 37°C. The stimulation was then stopped, and samples were processed for analysis of 5‐LO products using RP‐HPLC. Total 5‐LO products measured represent LTB4, its trans isomers, 20‐OH‐LTB4, 20‐COOH‐LTB4 and 5‐hydroxyeicosatetraenoic acid. Data are expressed as means ± SEM of at least three independent experiments. *Difference from control, as determined using one‐way ANOVA with Dunnett's multiple comparison test (P < .05)

| SMILES | Metabolites formed in HepaRG cell culture (HepaRG cells) | IC50 (5‐LO) | Inhibition of LT biosynthesis in human PMNL (5‐LO) |
| --- | --- | --- | --- |
| O=C(/C=C/c1cc(O)ccc1O)CCc1ccccc1 [compound 8] | α,β‐unsaturated ketone reduction | 510 nM | – |
| O=C(/C=C/c1ccc(O)c(O)c1)OCCc1ccccc1 [CAPE (2), caffeic acid phenethyl ester, reference compound] | – | 970 nM | – |
| COc1cc(/C=C/C(=O)CCc2ccccc2)cc(OC)c1O [compound 10, sinapic acid phenethyl ketone] | α,β‐unsaturated ketone reduction | 410 nM | near complete inhibition |
| O=C(/C=C/c1ccc(O)c(O)c1)CCCc1ccccc1 [compound 7] | α,β‐unsaturated ketone reduction | 520 nM | near complete inhibition |
| O=C(/C=C/c1cc(O)ccc1O)OCCc1ccccc1 [compound 5] | – | 320 nM | near complete inhibition |
